According to US9732087B2, “Diamino-pyridine, pyrimidine, and pyridazine modulators of the histamine H4 receptor” (JANSSEN PHARMACEUTICA NV, priority 2008, dated 2017):

What follows are compounds tested against human H4 receptor (Homo sapiens (Human), UniProt Q9H3N8) (assay: Binding assay on recombinant human histamine H4 receptor ([3H]histamine competition, SK-N-MC cell membranes)). Details: membranes harvested with 96 well Brandel system; [3H]histamine 10 nM; average of results; read-out: Brandel Ki.
Chain of human H4 receptor (Q9H3N8 whole entry): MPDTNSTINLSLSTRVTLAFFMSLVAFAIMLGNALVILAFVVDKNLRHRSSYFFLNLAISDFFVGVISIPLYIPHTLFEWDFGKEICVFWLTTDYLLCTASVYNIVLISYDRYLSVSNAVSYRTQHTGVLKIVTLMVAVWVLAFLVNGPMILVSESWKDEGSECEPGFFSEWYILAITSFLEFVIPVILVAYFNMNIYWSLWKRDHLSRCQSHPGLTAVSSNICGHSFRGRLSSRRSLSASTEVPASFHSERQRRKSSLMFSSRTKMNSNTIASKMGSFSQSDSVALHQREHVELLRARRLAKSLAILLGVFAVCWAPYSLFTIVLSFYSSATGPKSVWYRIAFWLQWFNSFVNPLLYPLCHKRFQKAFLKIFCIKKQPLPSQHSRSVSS
Procedure: Binding Assay on Recombinant Human Histamine H4Receptor
Cell pellets from SK-N-MC cells stably or transiently transfected with human H4 receptor (NCBI accession No. AF312230) were used for the binding assays. Cell pellets were homogenized in 50 mM Tris/5 mM EDTA buffer and supernatants from an 800 g spin were collected and recentrifuged at 30,000 g for 30 min. Pellets were rehomogenized in 50 mM Tris/5 mM EDTA buffer. […] Membranes were harvested by rapid filtration using the 96 well Brandel system (Table 1, Brandel) or a cell harvester (Table 1, Cell Harvester) using a Whatman GF/C filter or filter plates treated with 0.5% polyethylenimine (PEI), and washed 4 times with ice-cold 50 mM Tris/5 mM EDTA buffer. Filters were then dried, mixed with scintillant and radioactive counts were determined. […] Where activity is shown as greater than (>) a particular value, the value is the highest concentration tested.
In the case of `CN[C@@H]1CCN(c2cnnc(N[C@H]3C[C@H]4C[C@@H]([C@@H]3C)C4(C)C)c2)C1` [Example 97, 5-[(3R)-3-(Methylamino)pyrrolidin-1-yl]-N-[(1S,2S,3S,5R)-2,6,6-trimethylbicyclo[3.1.1]hept-3-yl]pyridazin-3-amine], the Ki is reported as 5.9 nM.
In the case of `CN[C@@H]1CCN(c2cnnc(NC3CCCCC3)c2)C1` [Example 98, N-Cyclohexyl-5-[(3R)-3-(methylamino)pyrrolidin-1-yl]pyridazin-3-amine], the Ki is reported as 4.8 nM.
In the case of `CN[C@@H]1CCN(c2cnnc(NCC3CC3)c2)C1` [Example 99, N-(Cyclopropylmethyl)-5-[(3R)-3-(methylamino)pyrrolidin-1-yl]pyridazin-3-amine], the Ki is reported as 23.9 nM.
`CCCCNc1cc(N2CC[C@@H](NC)C2)cnn1` [Example 100, N-Butyl-5-[(3R)-3-(methylamino)pyrrolidin-1-yl]pyridazin-3-amine] was tested, and the Ki was 31 nM.
For `CC(C)CNc1cc(N2CCN(C)CC2)cnn1` [Example 101, 5-(4-Methylpiperazin-1-yl)-N-(2-methylpropyl)pyridazin-3-amine], the Ki was greater than 10000 nM.

Same assay, conditions: membranes harvested with cell harvester; [3H]histamine 10 nM; average of results; read-out: Cell Harvester Ki
In the case of `NC1CN(c2ccnc(NC[C@H]3CCCO3)n2)C1` [Example 94, 4-(3-Aminoazetidin-1-yl)-N-[(2R)-tetrahydrofuran-2-ylmethyl]pyrimidin-2-amine], the Ki is reported as 868 nM.
`CN[C@@H]1CCN(c2cnnc(N[C@H]3C[C@H]4C[C@@H]([C@@H]3C)C4(C)C)c2)C1` [Example 97, 5-[(3R)-3-(Methylamino)pyrrolidin-1-yl]-N-[(1S,2S,3S,5R)-2,6,6-trimethylbicyclo[3.1.1]hept-3-yl]pyridazin-3-amine] gave a Ki of 5.9 nM.
`CN[C@@H]1CCN(c2cnnc(NC3CCCCC3)c2)C1` [Example 98, N-Cyclohexyl-5-[(3R)-3-(methylamino)pyrrolidin-1-yl]pyridazin-3-amine] gave a Ki of 4.8 nM.
`CN[C@@H]1CCN(c2cnnc(NCC3CC3)c2)C1` [Example 99, N-(Cyclopropylmethyl)-5-[(3R)-3-(methylamino)pyrrolidin-1-yl]pyridazin-3-amine] showed a Ki of 23.9 nM.
Work on `CCCCNc1cc(N2CC[C@@H](NC)C2)cnn1` [Example 100, N-Butyl-5-[(3R)-3-(methylamino)pyrrolidin-1-yl]pyridazin-3-amine] yielded a Ki of 31 nM.
For `CC(C)CNc1cc(N2CCN(C)CC2)cnn1` [Example 101, 5-(4-Methylpiperazin-1-yl)-N-(2-methylpropyl)pyridazin-3-amine], the Ki was greater than 10000 nM.
Work on `CNC1CN(c2ccnc(NCC3CCCCC3)n2)C1` [Example 102, N-(Cyclohexylmethyl)-4-[3-(methylamino)azetidin-1-yl]pyrimidin-2-amine] yielded a Ki of 45.9 nM.
`C[C@@H](Nc1nccc(N2CC[C@@H](N)C2)n1)C1CCCCC1` [Example 103, 4-[(3R)-3-Aminopyrrolidin-1-yl]-N-[(1R)-1-cyclohexylethyl]pyrimidin-2-amine] gave a Ki of 168 nM.
`CC1(C)[C@H]2CC[C@H](CNc3nccc(N4C[C@H]5CCN[C@H]5C4)n3)[C@@H]1C2` [Example 104, N-{[(1S,2S,5S)-6,6-Dimethylbicyclo[3.1.1]hept-2-yl]methyl}-4-[(3aR,6aR)-hexahydropyrrolo[3,4-b]pyrrol-5(1H)-yl]pyrimidin-2amine] gave a Ki of 1050 nM.
Work on `CNC1CN(c2ccnc(NCC3CCC4CC3C4(C)C)n2)C1` (stereo not drawn) [Example 105, N-[(6,6-Dimethylbicyclo[3.1.1]hept-2-yl)methyl]-4-[3-(methylamino)azetidin-1-yl]pyrimidin-2-amine] yielded a Ki of 165 nM.
For `CC1(C)C2CCC(CNc3nccc(N4CC[C@@H](N)C4)n3)C1C2` (stereo partly drawn) [Example 106, 4-[(3R)-3-Aminopyrrolidin-1-yl]-N-[(6,6-dimethylbicyclo[3.1.1]hept-2-yl)methyl]pyrimidin-2-amine], the Ki was 194 nM.
In the case of `c1cc(N2C[C@H]3CCN[C@H]3C2)nc(NCC2CCCCC2)n1` [Example 107, N-(Cyclohexylmethyl)-4-[(3aR,6aR)-hexahydropyrrolo[3,4-b]pyrrol-5(1H)-yl]pyrimidin-2-amine], the Ki is reported as 69.9 nM.
In the case of `CNC1CN(c2ccnc(NC3CCOCC3)n2)C1` [Example 108, 4-[3-(Methylamino)azetidin-1-yl]-N-(tetrahydro-2H-pyran-4-yl)pyrimidin-2-amine], the Ki is reported as 141 nM.
In the case of `N[C@H]1CCN(c2ccnc(NCC3CC3)n2)C1` [Example 109, 4-[(3S)-3-Aminopyrrolidin-1-yl]-N-(cyclopropylmethyl)pyrimidin-1-amine], the Ki is reported as 64 nM.
In the case of `CC(C)(O)CNc1nccc(N2CC[C@H](N)C2)n1` [Example 110, 1-({4-[(3S)-3-Aminopyrrolidin-1-yl]pyrimidin-2-yl}amino)-2-methylpropan-2-ol], the Ki is reported as 837 nM.
Compound `c1cc(N2CCNCC2)nc(NC2CC2)n1` [Example 112, N-Cyclopropyl-4-piperazin-1-ylpyrimidin-2-amine] has a Ki of 236 nM.
`CNC1CN(c2ccnc(N[C@H](C)C3CCCCC3)n2)C1` [Example 113, N-[(1R)-1-Cyclohexylethyl]-4-[3-(methylamino)azetidin-1-yl]pyrimidin-2-amine] was tested, and the Ki was 139 nM.
For `CN[C@@H]1CCN(c2ccnc(NCC(C)(C)O)n2)C1` [Example 114, 2-Methyl-1-({4-[(3R)-3-(methylamino)pyrrolidin-1-yl]pyrimidin-2-yl}amino)propan-2-ol], the Ki was 45.4 nM.
`C[C@@H](Nc1nccc(N2C[C@H]3CCN[C@H]3C2)n1)C1CCCCC1` [Example 115, N-[(1R)-1-Cyclohexylethyl]-4-[(3aR,6aR)-hexahydropyrrolo[3,4-b]pyrrol-5(1H)-yl]pyrimidin-2-amine] gave a Ki of 932 nM.
Work on `C[C@@H]1[C@@H](Nc2nccc(N3CC[C@@H](N)C3)n2)C[C@H]2C[C@@H]1C2(C)C` [Example 116, 4-[(3R)-3-Aminopyrrolidin-1-yl]-N-[(1S,2S,3S,5R)-2,6,6-trimethylbicyclo[3.1.1]hept-3-yl]pyrimidin-2-amine] yielded a Ki of 7.53 nM.
`N[C@@H]1CCN(c2ccnc(NCCc3ccccc3)n2)C1` [Example 117, 4-[(3R)-3-Aminopyrrolidin-1-yl]-N-(2-phenylethyl)pyrimidin-2-amine] showed a Ki of 247 nM.
For `N[C@H]1CCN(c2ccnc(NCc3ccccn3)n2)C1` [Example 118, 4-[(3S)-3-Aminopyrrolidin-1-yl]-N-(pyridin-2-ylmethyl)pyrimidin-2-amine], the Ki was greater than 10000 nM.
`CN1CCN(c2ccnc(NCC3CCCC3)n2)CC1` [Example 119, N-(Cyclopentylmethyl)-4-(4-methylpiperazin-1-yl)pyrimidin-2-amine] showed a Ki of 22.9 nM.
Compound `CN1CCN(c2ccnc(NCC(C)(C)O)n2)CC1` [Example 120] has a Ki of 303 nM.
Compound `CN[C@@H]1CCN(c2ccnc(NCC3CCCC3)n2)C1` [Example 121, N-(Cyclopentylmethyl)-4-[(3R)-3-(methylamino)pyrrolidin-1-yl]pyrimidin-2-amine] has a Ki of 1.57 nM.
`CNC1CN(c2ccnc(NCC(C)(C)O)n2)C1` [Example 122] gave a Ki of 64.7 nM.
Compound `N[C@@H]1CCN(c2ccnc(NCC3CCCC3)n2)C1` [Example 123, 4-[(3R)-3-Aminopyrrolidin-1-yl]-N-(cyclopentylmethyl)pyrimidin-2-amine] has a Ki of 2.04 nM.
`CSCCNc1nccc(N2CCNCC2)n1` [Example 124, N-[2-(Methylsulfanyl)ethyl]-4-piperazin-1-ylpyrimidin-2-amine] gave a Ki of 155 nM.
`CC1(C)[C@@H]2CC[C@@]1(C)[C@@H](Nc1nccc(N3C[C@H]4CCN[C@H]4C3)n1)C2` [Example 125, 4-[(3aR,6aR)-Hexahydropyrrolo[3,4-b]pyrrol-5(1H)-yl]-N-[(1R,2S,4R)-1,7,7-trimethylbicyclo[2.2.1]hept-2-yl]pyrimidin-2-amine] gave a Ki of 2.1 nM.
`CNC1CN(c2ccnc(N[C@H]3C[C@H]4CC[C@]3(C)C4(C)C)n2)C1` [Example 126, 4-[3-(Methylamino)azetidin-1-yl]-N-[(1R,2S,4R)-1,7,7-trimethylbicyclo[2.2.1]hept-2-yl]pyrimidin-2-amine] was tested, and the Ki was 19.8 nM.
`CC1(C)[C@@H]2CC[C@@]1(C)[C@@H](Nc1nccc(N3CC[C@@H](N)C3)n1)C2` [Example 127, 4-[(3R)-3-Aminopyrrolidin-1-yl]-N-[(1R,2S,4R)-1,7,7-trimethylbicyclo[2.2.1]hept-2-yl]pyrimidin-2-amine] gave a Ki of 1.66 nM.
`COCCNc1nccc(N2CC[C@H](N)C2)n1` [Example 128, 4-[(3S)-3-Aminopyrrolidin-1-yl]-N-(2-methoxyethyl)pyrimidin-2-amine] gave a Ki of 844 nM.
`N[C@H]1CCN(c2ccnc(NC3CCCCC3)n2)C1` [Example 129, 4-[(3S)-3-Aminopyrrolidin-1-yl]-N-cyclohexylpyrimidin-2-amine] gave a Ki of 141 nM.
`CC(C)(CO)CNc1nccc(N2CC[C@H](N)C2)n1` [Example 130, 3-({4-[(3S)-3-Aminopyrrolidin-1-yl]pyrimidin-2-yl}amino)-2,2-dimethylpropan-1-ol] was tested, and the Ki was 849 nM.
In the case of `c1ccc(CNc2nccc(N3CCNCC3)n2)cc1` [Example 131, N-Benzyl-4-piperazin-1-ylpyrimidin-2-amine], the Ki is reported as 820 nM.
In the case of `c1ccc(CCNc2nccc(N3CCNCC3)n2)cc1` [Example 132, N-(2-Phenylethyl)-4-piperazin-1-ylpyrimidin-2-amine], the Ki is reported as 1540 nM.
With `c1cc(N2CCNCC2)nc(NC2CC3CCC2C3)n1` (stereo not drawn) [Example 133, N-Bicyclo[2.2.1]hept-2-yl-4-piperazin-1-ylpyrimidin-2-amine] the Ki was 129 nM.
With `C[C@@H]1[C@@H](Nc2nccc(N3CCNCC3)n2)C[C@H]2C[C@@H]1C2(C)C` [Example 134, 4-Piperazin-1-yl-N-[(1S,2S,3S,5R)-2,6,6-trimethylbicyclo[3.1.1]hept-3-yl]pyrimidin-2-amine] the Ki was 697 nM.
Compound `CNC1CN(c2ccnc(NCCCO)n2)C1` [Example 135, 3-({4-[3-(Methylamino)azetidin-1-yl]pyrimidin-2-yl}amino)propan-1-ol] has a Ki of 15.9 nM.
Compound `CNC1CN(c2ccnc(NCC(C)(C)CO)n2)C1` [Example 136, 2,2-Dimethyl-3-({4-[3-(methylamino)azetidin-1-yl]pyrimidin-2-yl}amino)propan-1-ol] has a Ki of 193 nM.
With `OCCCNc1nccc(N2CCNCC2)n1` [Example 137, 3-[(4-Piperazin-1-ylpyrimidin-2-yl)amino]propan-1-ol] the Ki was 1380 nM.
Compound `CC(C)CNc1nccc(N2C[C@H]3CCN[C@H]3C2)n1` [Example 138, 4-[(3aR,6aR)-Hexahydropyrrolo[3,4-b]pyrrol-5(1H)-yl]-N-(2-methylpropyl)pyrimidin-2-amine] has a Ki of 23.8 nM.
`c1cc(N2C[C@H]3CCN[C@H]3C2)nc(NC2CCCC2)n1` [Example 139, N-Cyclopentyl-4-[(3aR,6aR)-hexahydropyrrolo[3,4-b]pyrrol-5(1H)-yl]pyrimidin-2-amine] was tested, and the Ki was 7.96 nM.
